Data set [1] is described as follows: Pharmacokinetic studies of the protegrin conjugates, single IV dose. Type of data set: in vivo, Sprague-Dawley rats. The conditions noted are these: equivalent protein mass 1.6 mg/kg IV. The method, then: Twenty one (21) adult male Sprague-Dawley rats with indwelling jugular vein and carotid artery catheters (JVC/CAC) (Charles River Labs, Hollister, Calif.) were utilized for this study. The weight range of the animals was 313-346 grams. All animals were food fasted overnight. Prior to dosing the rats were weighed, the tails and cage cards were labeled for identification and the doses were calculated. Anesthesia was induced and maintained with 3.0-5.0% isoflurane. The JVC and CAC were externalized, flushed with HEP/saline (10 IU/mL HEP/mL saline), plugged, and labeled to identify the jugular vein and carotid artery The predose sample was collected from the JVC. […] Following the last collection point, the animals were euthanized. Bioanalytical analysis: analysis of the plasma samples was conducted using non-validated LC-MS/MS methods. Noncompartmental PK data analysis and report preparation was completed. PK analysis was performed using WinNonlin (Version 5.2, Mountain View, Calif.-94014). Concentrations in plasma that were below LLOQ were replaced with zeros prior to generating Tables and PK analysis. The following PK parameters were estimated using plasma concentration-time profile of each animal: • C0 Extrapolated concentration to time “zero” • Cmax Maximum (peak) concentration • AUCall Area under the concentration-time from zero to time of last concentration value • T1/2(Z) Terminal elimination half-life • AUCinf Area under the concentration-time from zero to time infinity • Tmax Time to reach maximum or peak concentration following administration • CL Total body clearance • Vz Volume of distribution based on terminal phase • Vss Volume of distribution at steady state • MRTlast Mean residence time to last observable concentration

Data set [2] deals with rat red blood cells. Nature of the data set: Hemolysis assay. Format: cell-based. The method, then: Hemolysis assay. Approximately 10 mL of blood was drawn from one adult rat into Na Heparin tube and kept in ice until use. Red blood cells were washed three times with 10 mL of cold DPBS ((−) CaCl2 and (−) MgCl2) and collected by sequential centrifugation at 3,000 g for 5 min at 4° C. Pellets of red blood cells were resuspended with DPBS ((−) CaCl2 and (−) MgCl2) and the total volume was brought up to initial volume of blood drawn. One mL of resuspended red blood cells was resuspended with 49 mL of DPBS ((−) CaCl2 and (−) MgCl2). Incubation mixture was prepared by 400 fold dilution of stock solution of test compounds with final volume of 800 μl. Final concentration of test compounds was equimolar to that of respective unconjugated compounds. Hemolysis incubation was done at 37° C. with mild agitation. For releasable conjugates, test compounds were preincubated in 1×PBS at 37° C. prior to hemolysis assay. Incubation mixture was centrifuged at 3,000 g for 5 min at 4° C., and the absorbance at 550 nm was read from supernatant. […] [table]

Setting [3] is: non-releasable PEG conjugates, Sprague Dawley rats, Mean ± SD.
The mark [4] stands for this setting: protegrin-1 in plasma, rats, native or via releasable PEG conjugate.

On to `CC(C)C[C@H](NC(=O)[C@H](CCCNC(=N)N)NC(=O)CNC(=O)CNC(=O)[C@@H](N)CCCNC(=N)N)C(=O)N[C@H]1CSSC[C@@H](C(=O)N[C@H](C(=O)NCC(=O)N[C@@H](CCCNC(=N)N)C(N)=O)C(C)C)NC(=O)[C@H](C(C)C)NC(=O)[C@@H]2CSSC[C@H](NC(=O)[C@H](Cc3ccc(O)cc3)NC1=O)C(=O)N[C@@H](CCCNC(=N)N)C(=O)N[C@@H](CCCNC(=N)N)C(=O)N[C@@H](CCCNC(=N)N)C(=O)N[C@@H](Cc1ccccc1)C(=O)N2` [Protegrin-1], for which the Tmax in data set [1] (male, Sprague-Dawley, rat, in vivo, protegrin-1 in plasma, rats, native or via releasable PEG conjugate) amounted to 1.8 min. Moreover, in data set [1] (setting [3]), the AUCINF came out at 1160 ± 351 ng·h/mL, the CL is 1470 ± 434^ mL/hr/kg, the Cmax is listed as 2050 ± 601 ng/mL and the MRTlast is 31.2 ± 3 min. Also, in data set [1] (setting [3]), the T1/2 stood at 21 ± 6 min and the Vss was found to be 0.848 ± 0.36 L/kg. For the same molecule, in data set [1] (setting [4]), the AUCINF is 1160 ng·h/mL, the peak concentration (Cmax) came out at 2050 ng/mL, the MRTlast came to 31.2 min and the T1/2 is 21 min. Moreover, in data set [2] (rat red blood cells, 37° C., relative to 100% hemolysis by 0.25% Triton X-100, releasable conjugates preincubated in 1XPBS at 37° C.), the “hemolytic effects / hemolytic activity” value was “comparable to literature data”. Further, the “hemolytic activity retained compared to PG1 preincubated for 0 hr” value in data set [2] (red cells of rat, 96 h) is given as “about 60%”.

(Values after patent US9763995B2, “Polymer conjugates of protegrin peptides” (Nektar Therapeutics, priority 2008, dated 2017).)
